Reference: PubChem BioAssay (NCI)
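The concentration for 50% growth inhibition is given as GI50. TGI: total growth inhibition.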

How the values were obtained:
Assay in all cases: growth of human tumour cells (NCI), 384-well format
[1] = test system: SF-268 CNS
[2] = test system: SW-620 colon
[3] = test system: NCI/ADR-RES ovarian
[4] = test system: MCF7 breast
[5] = test system: SNB-19 CNS
[6] = test system: T-47D breast
[7] = test system: OVCAR-4 ovarian
[8] = test system: MOLT-4 leukemia
[9] = test system: M14 melanoma
[10] = test system: MDA-MB-435 melanoma
[11] = test system: SK-MEL-28 melanoma
[12] = test system: PC-3 prostate
[13] = test system: NCI-H522 lung
[14] = test system: UO-31 renal
[15] = test system: SR leukemia
[16] = test system: MALME-3M melanoma
[17] = test system: ACHN renal
[18] = test system: MDA-MB-468 breast
[19] = test system: HCT-116 colon
[20] = test system: HCC-2998 colon
[21] = test system: NCI-H322M lung
[22] = test system: SF-295 CNS
[23] = test system: NCI-H23 lung
[24] = test system: BT-549 breast
[25] = test system: K-562 leukemia
[26] = test system: 786-0 renal
[27] = test system: HL-60(TB) leukemia
[28] = test system: MDA-MB-231 breast
[29] = test system: U251 glioblastoma
[30] = test system: SF-539 CNS
[31] = test system: HOP-92 NSCLC
[32] = test system: COLO 205 colon
[33] = test system: HT29 colon
[34] = test system: A498 renal
[35] = test system: SK-MEL-5 melanoma
[36] = test system: SNB-75 CNS
[37] = test system: NCI-H460 NSCLC
[38] = test system: OVCAR-3 ovarian
[39] = test system: SK-OV-3 ovarian
[40] = test system: NCI-H226 lung
[41] = test system: OVCAR-8 ovarian
[42] = test system: TK-10 renal
[43] = test system: EKVX NSCLC
[44] = test system: RXF 393 renal
[45] = test system: CCRF-CEM leukemia
[46] = test system: HOP-62 NSCLC
[47] = test system: IGROV1 ovarian
[48] = test system: A549 NSCLC
[49] = test system: KM12 colon
[50] = test system: RPMI-8226 leukemia
[51] = test system: HS 578T breast
[52] = test system: HCT-15 colon
[53] = test system: LOX IMVI melanoma
[54] = test system: UACC-62 melanoma
[55] = test system: SN12C renal
[56] = test system: DU-145 prostate
[57] = test system: CAKI-1 renal

How did the GI50 [1] turn out when `Cc1ccc(NC(=O)c2cccc(C(C)(C)C#N)c2)cc1Nc1ccc2ncn(C)c(=O)c2c1` was run?
Its GI50 is 4.8 µM.

What about the TGI [1] of the same compound?
Its TGI is over 100 µM.

And the GI50 [2]?
The GI50 was 0.798 µM.

What about the TGI [2] of the same compound?
The TGI was over 100 µM.

And the GI50 [3]?
The GI50 was 3.06 µM.

And the TGI [3]?
The TGI was 14.1 µM.

What about the GI50 [4] of the same compound?
Its GI50 is 5.97 µM.

And the TGI [4]?
The TGI was over 100 µM.

What about the GI50 [5] of the same compound?
Its GI50 is 4.82 µM.

What about the TGI [5] of the same compound?
Its TGI is over 100 µM.

What about the GI50 [6] of the same compound?
The GI50 was 4.42 µM.

And the TGI [6]?
The TGI was over 100 µM.

What about the GI50 [7] of the same compound?
The GI50 was 5.43 µM.

And the TGI [7]?
Its TGI is over 100 µM.

And the GI50 [8]?
The GI50 was 1.86 µM.

And the TGI [8]?
The TGI was 6.08 µM.

And the GI50 [9]?
Its GI50 is 0.0119 µM.

And the TGI [9]?
Its TGI is 0.106 µM.

And the GI50 [10]?
The GI50 was 0.0617 µM.

And the TGI [10]?
Its TGI is over 100 µM.

And the GI50 [11]?
Its GI50 is 0.0122 µM.

And the TGI [11]?
Its TGI is 0.0749 µM.

What about the GI50 [12] of the same compound?
The GI50 was 8.34 µM.

And the TGI [12]?
The TGI was over 100 µM.

And the GI50 [13]?
The GI50 was 4.09 µM.

What about the TGI [13] of the same compound?
The TGI was over 100 µM.

And the GI50 [14]?
The GI50 was 0.527 µM.

What about the TGI [14] of the same compound?
The TGI was 5.68 µM.

What about the GI50 [15] of the same compound?
The GI50 was 0.153 µM.

And the TGI [15]?
The TGI was 0.908 µM.

What about the TGI [16] of the same compound?
Its TGI is 0.0178 µM.

And the GI50 [17]?
The GI50 was 2.22 µM.

What about the TGI [17] of the same compound?
The TGI was over 100 µM.

And the GI50 [18]?
Its GI50 is 3.53 µM.

What about the TGI [18] of the same compound?
Its TGI is 44.1 µM.

What about the GI50 [19] of the same compound?
The GI50 was 0.136 µM.

What about the TGI [19] of the same compound?
Its TGI is 13.4 µM.

And the GI50 [20]?
The GI50 was 0.0525 µM.

What about the TGI [20] of the same compound?
Its TGI is 1.84 µM.

And the GI50 [21]?
The GI50 was 2.62 µM.

And the TGI [21]?
Its TGI is over 100 µM.

What about the GI50 [22] of the same compound?
Its GI50 is 4.63 µM.

What about the TGI [22] of the same compound?
The TGI was over 100 µM.

What about the GI50 [23] of the same compound?
The GI50 was 0.048 µM.

And the TGI [23]?
Its TGI is 1.43 µM.

And the GI50 [24]?
Its GI50 is 6.99 µM.

And the TGI [24]?
The TGI was over 100 µM.

What about the GI50 [25] of the same compound?
Its GI50 is 0.232 µM.

And the TGI [25]?
Its TGI is 1.06 µM.

What about the GI50 [26] of the same compound?
Its GI50 is 4.85 µM.

And the TGI [26]?
Its TGI is over 100 µM.

And the GI50 [27]?
The GI50 was 0.0135 µM.

And the TGI [27]?
Its TGI is 0.148 µM.

And the GI50 [28]?
Its GI50 is 0.036 µM.

And the TGI [28]?
Its TGI is 27.3 µM.

What about the GI50 [29] of the same compound?
Its GI50 is 4.36 µM.

And the TGI [29]?
Its TGI is over 100 µM.

What about the GI50 [30] of the same compound?
The GI50 was 7.1 µM.

What about the TGI [30] of the same compound?
Its TGI is over 100 µM.

And the GI50 [31]?
The GI50 was 0.593 µM.

What about the TGI [31] of the same compound?
Its TGI is 2.55 µM.

And the GI50 [32]?
Its GI50 is 0.0246 µM.

What about the TGI [32] of the same compound?
The TGI was 8.52 µM.

And the GI50 [33]?
The GI50 was 0.0579 µM.

What about the TGI [33] of the same compound?
Its TGI is over 100 µM.

What about the GI50 [34] of the same compound?
Its GI50 is 5.55 µM.

And the TGI [34]?
The TGI was over 100 µM.

And the GI50 [35]?
The GI50 was 0.0419 µM.

And the TGI [35]?
The TGI was 1.78 µM.

And the GI50 [36]?
The GI50 was 7.19 µM.

What about the TGI [36] of the same compound?
The TGI was over 100 µM.

And the GI50 [37]?
Its GI50 is 1.47 µM.

What about the TGI [37] of the same compound?
The TGI was over 100 µM.

What about the GI50 [38] of the same compound?
Its GI50 is 3.22 µM.

And the TGI [38]?
Its TGI is over 100 µM.

And the GI50 [39]?
Its GI50 is 4.9 µM.

And the TGI [39]?
The TGI was over 100 µM.

What about the GI50 [40] of the same compound?
Its GI50 is 2.01 µM.

And the TGI [40]?
The TGI was over 100 µM.

And the GI50 [41]?
The GI50 was 2.85 µM.

And the TGI [41]?
The TGI was over 100 µM.

What about the GI50 [42] of the same compound?
The GI50 was 2.92 µM.

And the TGI [42]?
Its TGI is 60.6 µM.

What about the GI50 [43] of the same compound?
The GI50 was 6.79 µM.

And the TGI [43]?
Its TGI is over 100 µM.

What about the GI50 [44] of the same compound?
The GI50 was 5.05 µM.

And the TGI [44]?
Its TGI is over 100 µM.

And the GI50 [45]?
The GI50 was 2.19 µM.

What about the TGI [45] of the same compound?
Its TGI is 9.99 µM.

And the GI50 [46]?
Its GI50 is 1.8 µM.

And the TGI [46]?
Its TGI is over 100 µM.

And the GI50 [47]?
Its GI50 is 0.935 µM.

And the TGI [47]?
The TGI was 7 µM.

And the GI50 [48]?
Its GI50 is 3.11 µM.

What about the TGI [48] of the same compound?
Its TGI is over 100 µM.

What about the GI50 [49] of the same compound?
Its GI50 is 0.803 µM.

What about the TGI [49] of the same compound?
The TGI was over 100 µM.

What about the GI50 [50] of the same compound?
Its GI50 is 1.1 µM.

What about the TGI [50] of the same compound?
The TGI was 3.33 µM.

What about the GI50 [51] of the same compound?
Its GI50 is 1.92 µM.

And the TGI [51]?
Its TGI is 9.66 µM.

What about the GI50 [52] of the same compound?
Its GI50 is 2.91 µM.

What about the TGI [52] of the same compound?
The TGI was over 100 µM.

And the GI50 [53]?
Its GI50 is 0.0358 µM.

And the TGI [53]?
Its TGI is 1.34 µM.

And the GI50 [54]?
The GI50 was 0.0105 µM.

What about the TGI [54] of the same compound?
The TGI was 0.13 µM.

And the GI50 [55]?
Its GI50 is 0.698 µM.

What about the TGI [55] of the same compound?
The TGI was over 100 µM.

And the GI50 [56]?
The GI50 was 3.63 µM.

And the TGI [56]?
Its TGI is over 100 µM.

And the GI50 [57]?
Its GI50 is 0.343 µM.

What about the TGI [57] of the same compound?
The TGI was over 100 µM.
